Columns and labels:
[1] = molecular target: Dipeptidyl peptidase 4 (Rattus norvegicus) (UniProt P14740); settings: 8 ng/ml
Description: Inhibition of rat kidney DPP4 at 8 ng/ml

[2] = molecular target: Dipeptidyl peptidase 4 (Rattus norvegicus) (UniProt P14740); settings: 32 ng/ml
Description: Inhibition of rat kidney DPP4 at 32 ng/ml

[3] = molecular target: Dipeptidyl peptidase 4 (Rattus norvegicus) (UniProt P14740); settings: 64 ng/ml
Description: Inhibition of rat kidney DPP4 at 64 ng/ml

[4] = molecular target: Dipeptidyl peptidase 4 (Rattus norvegicus) (UniProt P14740); settings: 2 ng/ml
Description: Inhibition of rat kidney DPP4 at 2 ng/ml

[5] = molecular target: Dipeptidyl peptidase 4 (Rattus norvegicus) (UniProt P14740); settings: 16 ng/ml
Description: Inhibition of rat kidney DPP4 at 16 ng/ml

[6] = molecular target: Dipeptidyl peptidase 4 (Rattus norvegicus) (UniProt P14740); settings: 4 ng/ml
Description: Inhibition of rat kidney DPP4 at 4 ng/ml

[7] = molecular target: Dipeptidyl peptidase 4 (Rattus norvegicus) (UniProt P14740); settings: 1 ng/ml
Description: Inhibition of rat kidney DPP4 at 1 ng/ml

[8] = molecular target: Dipeptidyl peptidase 4 (Rattus norvegicus) (UniProt P14740); settings: 0.5 ng/ml
Description: Inhibition of rat kidney DPP4 at 0.5 ng/ml

Sequence of Dipeptidyl peptidase 4 (Rattus norvegicus) (P14740 whole entry, looked up): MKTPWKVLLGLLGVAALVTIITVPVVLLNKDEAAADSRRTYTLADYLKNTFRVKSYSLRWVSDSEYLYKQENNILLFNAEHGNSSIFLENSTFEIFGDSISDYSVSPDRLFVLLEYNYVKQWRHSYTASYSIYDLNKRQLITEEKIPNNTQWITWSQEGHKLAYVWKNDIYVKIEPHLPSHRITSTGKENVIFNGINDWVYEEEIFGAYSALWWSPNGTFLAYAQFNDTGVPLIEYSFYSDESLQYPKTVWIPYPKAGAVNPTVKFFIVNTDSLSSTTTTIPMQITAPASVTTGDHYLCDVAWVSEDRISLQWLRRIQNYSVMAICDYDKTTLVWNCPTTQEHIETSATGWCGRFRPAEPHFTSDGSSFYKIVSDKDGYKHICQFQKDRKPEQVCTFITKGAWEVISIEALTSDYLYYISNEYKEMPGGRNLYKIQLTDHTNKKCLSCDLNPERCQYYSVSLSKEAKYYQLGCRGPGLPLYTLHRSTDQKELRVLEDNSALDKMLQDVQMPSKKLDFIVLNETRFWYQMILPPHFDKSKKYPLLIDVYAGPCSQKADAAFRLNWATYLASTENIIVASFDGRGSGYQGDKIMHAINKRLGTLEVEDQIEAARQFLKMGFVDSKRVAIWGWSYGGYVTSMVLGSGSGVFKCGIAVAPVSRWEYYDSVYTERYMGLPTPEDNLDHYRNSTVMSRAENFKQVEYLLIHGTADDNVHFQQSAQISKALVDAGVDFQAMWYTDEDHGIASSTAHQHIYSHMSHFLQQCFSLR

N[C@H]1CCCN([P@@](N)(=O)NS(=O)(=O)O)C1=O gave an inhibition [1] of 54.4%, an inhibition [2] of 77.4% and an inhibition [3] of 84.5%. It also gave an inhibition [4] of 30.6%, an inhibition [5] of 66.9% and an inhibition [6] of 41.9%. For the same compound, the inhibition [7] was 20.2% and the inhibition [8] was 15.9%.
